Measurements published in patent publication US10035790B2, “RORγ modulators” (BRISTOL-MYERS SQUIBB COMPANY, priority 2012, dated 2018).

Biological target: T1, ligand binding domain of human RORγ (A262-S507) (Homo sapiens, UniProt P51449)
T1 construct: made in house; host or cells: E. coli
T1 sequence (P51449 262-507): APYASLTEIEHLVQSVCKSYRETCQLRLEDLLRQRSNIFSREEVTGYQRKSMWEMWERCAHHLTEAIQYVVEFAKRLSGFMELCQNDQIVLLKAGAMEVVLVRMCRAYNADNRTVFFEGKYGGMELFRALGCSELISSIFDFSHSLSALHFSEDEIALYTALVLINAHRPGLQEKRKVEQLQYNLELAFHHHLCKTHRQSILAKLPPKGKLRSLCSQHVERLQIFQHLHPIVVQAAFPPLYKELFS
Test: General RORγ SPA binding assay (competition with [3H]25-hydroxycholesterol)
Details: IC50, RORγ SPA binding assay, inhibition of [3H]25-hydroxycholesterol binding
Procedure, shortened: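 N-terminally His-tagged protein was expressed in E. coli and nickel-purified. Then 50 nM protein was preincubated with compound for 15 min at room temperature in PBS with 0.5% fatty acid free BSA, followed by radioligand for 15 min and copper His-tag SPA beads for 30 min. IC50 came from percent inhibition of binding.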

Row | SMILES | IC50
1 | CC(O)(COc1cccc(C(F)(F)F)n1)c1cnc(N)nc1C1CCN(C(=O)Oc2c(F)cccc2F)CC1 (stereo not drawn) [Compound D48, 2,6-Difluorophenyl 4-[2-amino-5-(1-hydroxy-1-methyl-2-{[6-(trifluoromethyl)pyridin-2-yl]oxy}ethyl)pyrimidin-4-yl]piperidine-1-carboxylate] | 30.3 nM

Same assay, conditions: RORγ SPA binding assay, inhibition of [3H]25-hydroxycholesterol binding; read-out: IC50

Row | SMILES | IC50
2 | Cc1ncc(C(=O)NCc2cnc(Cl)s2)c(C2CCN(C(=O)Cc3c(F)cccc3F)CC2)n1 [Compound A72, N-((2-chlorothiazol-5-yl)methyl)-4-(1-(2-(2,6-difluorophenyl)acetyl)piperidin-4-yl)-2-methylpyrimidine-5-carboxamide] | 317 nM
3 | COc1ccccc1CC(=O)N1CCC(c2nc(C)ncc2C(=O)NCc2cc(C)cc(C)c2)CC1 [Compound A10, N-(3,5-dimethylbenzyl)-4-(1-(2-(2-methoxyphenyl)acetyl)piperidin-4-yl)-2-methylpyrimidine-5-carboxamide] | 33.1 nM
4 | Cc1ncc(C(C)(CO)CNc2ccnc(C(F)(F)F)n2)c(C2CCN(C(=O)Cc3c(F)cccc3F)CC2)n1 (stereo not drawn) [Compound F5, 2-(2,6-Difluorophenyl)-1-(4-(5-(1-hydroxy-2-methyl-3-(2-(trifluoromethyl)pyrimidin-4-ylamino)propan-2-yl)-2-methylpyrimidin-4-yl)piperidin-1-yl)ethanone] | 101 nM
5 | Cc1cc(C)cc(OCC(C)(O)c2cnc(C)nc2C2CCN(C(=O)Cc3c(F)cccc3F)CC2)c1 (stereo not drawn) [Compound D11, 2-(2,6-Difluorophenyl)-1-(4-(5-(1-(3,5-dimethylphenoxy)-2-hydroxypropan-2-yl)-2-methylpyrimidin-4-yl)piperidin-1-yl)ethanone] | 14.5 nM
6 | Cc1nc(C)c(-c2nnc(-c3ccnc(C(F)(F)F)n3)o2)c(C2CCN(S(=O)(=O)c3c(F)cccc3F)CC2)n1 [Compound C33, 4-{1-[(2,6-Difluorophenyl)sulfonyl]piperidin-4-yl}-2,6-dimethyl-5-{5-[2-(trifluoromethyl)pyrimidin-4-yl]-1,3,4-oxadiazol-2-yl}pyrimidine] | 844 nM
7 | Cc1ncc(C(=O)NCc2cc(Cl)nc(Cl)c2)c(C2CCN(C(=O)Cc3c(F)cccc3F)CC2)n1 [Compound A49, N-((2,6-dichloropyridin-4-yl)methyl)-4-(1-(2-(2,6-difluorophenyl)acetyl)piperidin-4-yl)-2-methylpyrimidine-5-carboxamide] | 6.8 nM
8 | Cc1cc(C)cc(CNC(=O)c2c(C)nc(C)nc2C2CCN(C(=O)Cc3c(F)cccc3F)CC2)c1 [Compound A80, 4-(1-(2-(2,6-difluorophenyl)acetyl)piperidin-4-yl)-N-(3,5-dimethylbenzyl)-2,6-dimethylpyrimidine-5-carboxamide] | 9.8 nM
9 | Cc1nc(C)c(-c2nnc(-c3ccnc(C(F)(F)F)n3)o2)c(C2CCN(C(=O)Cc3ccccc3Cl)CC2)n1 [Compound C41, 4-{1-[(2-Chlorophenyl)acetyl]piperidin-4-yl}-2,6-dimethyl-5-{5-[2-(trifluoromethyl)pyrimidin-4-yl]-1,3,4-oxadiazol-2-yl}pyrimidine] | 20.5 nM
10 | CCc1ncc(C(=O)NCc2cc(C)cc(C)c2)c(C2CCN(C(=O)Cc3c(F)cccc3F)CC2)n1 [Compound A64, 4-(1-(2-(2,6-difluorophenyl)acetyl)piperidin-4-yl)-N-(3,5-dimethylbenzyl)-2-ethylpyrimidine-5-carboxamide] | 64 nM
11 | O=C(NNc1cccc(Cl)c1)c1cnc(C2CC2)nc1C1CCN(C(=O)Cc2c(F)cccc2F)CC1 [Compound G2, N′-(3-chlorophenyl)-2-cyclopropyl-4-(1-(2-(2,6-difluorophenyl)acetyl)piperidin-4-yl)pyrimidine-5-carbohydrazide] | 4.6 nM
12 | Cc1nc(C)c(-c2nnc(-c3ccnc(C(F)(F)F)n3)o2)c(C2CCN(C(=O)Nc3ccccc3C(F)(F)F)CC2)n1 [Compound C30, 4-(2,6-dimethyl-5-{5-[2-(trifluoromethyl)pyrimidin-4-yl]-1,3,4-oxadiazol-2-yl}pyrimidin-4-yl)-N-[2-(trifluoromethyl)phenyl]piperidine-1-carboxamide] | 49.7 nM

Next, values leading:

Row | IC50 | SMILES
13 | 619 nM | Cc1ncc(C(=O)NCc2ccc(C(F)(F)F)nc2)c(C2CCN(C(=O)Cc3c(F)cccc3F)CC2)n1 [Compound A74, 4-(1-(2-(2,6-difluorophenyl)acetyl)piperidin-4-yl)-2-methyl-N-((6-(trifluoromethyl)pyridin-3-yl)methyl)pyrimidine-5-carboxamide]
14 | 57.9 nM | CC(=O)NCCNCC(O)(COc1cccc(C(F)(F)F)n1)c1cnc(C)nc1C1CCN(C(=O)Nc2c(F)cccc2F)CC1 (stereo not drawn) [Compound N38, 4-{5-[2-{[2-(Acetylamino)ethyl]amino}-1-hydroxy-1-({[6-(trifluoromethyl)pyridin-2-yl]oxy}methyl)ethyl]-2-methylpyrimidin-4-yl}-N-(2,6-difluorophenyl)piperidine-1-carboxamide]
15 | 4.7 nM | C/C(=N\Oc1ccnc(C#N)c1)c1cnc(C)nc1C1CCN(C(=O)Cc2c(F)cccc2F)CC1 [Compound B13, (E)-4-(((1-(4-(1-(2-(2,6-difluorophenyl)acetyl)piperidin-4-yl)-2-methylpyrimidin-5-yl)ethylidene)amino)oxy)picolinonitrile]
16 | 37 nM | CC(=O)Nc1nc(C)c(C(COc2cccc(C(F)(F)F)n2)OC(C)=O)c(C2CCN(C(=O)Nc3c(F)cccc3F)CC2)n1 (stereo not drawn) [Compound N11, 1-[2-(Acetylamino)-4-(1-{[(2,6-difluorophenyl)amino]carbonyl}piperidin-4-yl)-6-methylpyrimidin-5-yl]-2-{[6-(trifluoromethyl)pyridin-2-yl]oxy}ethyl acetate]
17 | 2.6 nM | Cc1ncc(C(C)(O)CNc2cccc(Cl)c2)c(C2CCN(C(=O)Cc3c(F)cccc3F)CC2)n1 (stereo not drawn) [Compound D1, 1-(4-(5-(1-(3-Chlorophenylamino)-2-hydroxypropan-2-yl)-2-methylpyrimidin-4-yl)piperidin-1-yl)-2-(2,6-difluorophenyl)ethanone]
18 | 16.9 nM | Cc1nc(N)nc(C2CCN(C(=O)Nc3c(F)cccc3F)CC2)c1C(O)COc1ccnc(C(F)(F)F)n1 (stereo not drawn) [Compound N7, 4-[2-amino-5-(1-hydroxy-2-{[2-(trifluoromethyl)pyrimidin-4-yl]oxy}ethyl)-6-methylpyrimidin-4-yl]-N-(2,6-difluorophenyl)piperidine-1-carboxamide]
19 | 1340 nM | Cc1ncc(C(C)(C)CNc2ccnc(C(F)(F)F)n2)c(C2CCN(C(=O)Nc3c(F)cccc3F)CC2)n1 [Compound F8, N-(2,6-Difluorophenyl)-4-(2-methyl-5-(2-methyl-1-(2-(trifluoromethyl)pyrimidin-4-ylamino)propan-2-yl)pyrimidin-4-yl)piperidine-1-carboxamide]
20 | 158 nM | C/C(=N\Oc1ccnc(C(F)(F)F)n1)c1cnc(C)nc1C1CCN(C(=O)Nc2c(F)cccc2F)CC1 [Compound B36, N-(2,6-Difluorophenyl)-4-{2-methyl-5-[(1E)-N-{[2-(trifluoromethyl)pyrimidin-4-yl]oxy}ethanimidoyl]pyrimidin-4-yl}piperidine-1-carboxamide]
21 | 101 nM | CC(O)(COc1ccnc(C(F)(F)F)n1)c1cnc(OCC(F)F)nc1C1CCN(C(=O)Nc2c(F)cccc2F)CC1 (stereo not drawn) [Compound D41, 4-{2-[(2,2-Difluoroethyl)oxy]-5-(1-hydroxy-1-methyl-2-{[2-(trifluoromethyl)pyrimidin-4-yl]oxy}ethyl)pyrimidin-4-yl}-N-(2,6-difluorophenyl)piperidine-1-carboxamide]
22 | 84.9 nM | C/C(=N/Oc1cccc(C(F)(F)F)c1)c1cnc(C)nc1C1CCN(C(=O)Nc2c(F)cccc2F)CC1 [Compound B44, N-(2,6-Difluorophenyl)-4-{2-methyl-5-[(1Z)—N-{[3-(trifluoromethyl)phenyl]oxy}ethanimidoyl]pyrimidin-4-yl}piperidine-1-carboxamide]
23 | 115 nM | CCNc1ncc(/C(C)=N/Oc2ccnc(C(F)(F)F)c2)c(C2CCN(C(=O)Nc3c(F)cccc3F)CC2)n1 [Compound B60, N-(2,6-Difluorophenyl)-4-{2-(ethylamino)-5-[(1E)-N-{[2-(trifluoromethyl)pyridin-4-yl]oxy}ethanimidoyl]pyrimidin-4-yl}piperidine-1-carboxamide]
24 | 84.1 nM | CC(=O)N1CCN(CC(O)(COc2cccc(C(F)(F)F)n2)c2cnc(C)nc2C2CCN(C(=O)Nc3c(F)cccc3F)CC2)CC1 (stereo not drawn) [Compound N39, 4-{5-[2-(4-Acetylpiperazin-1-yl)-1-hydroxy-1-({[6-(trifluoromethyl)pyridin-2-yl]oxy}methyl)ethyl]-2-methylpyrimidin-4-yl}-N-(2,6-difluorophenyl)piperidine-1-carboxamide]
25 | 6 nM | Cc1cc(C)cc(CNC(=O)c2cnc(C)nc2C2CCN(C(=O)Oc3c(F)cccc3F)CC2)c1 [Compound A120, 2,6-Difluorophenyl 4-[5-({[(3,5-dimethylphenyl)methyl]amino}carbonyl)-2-methylpyrimidin-4-yl]piperidine-1-carboxylate]
26 | 4.1 nM | Cc1ncc(C(F)(F)COc2cccc(C(F)(F)F)n2)c(C2CCN(C(=O)Nc3c(F)cccc3F)CC2)n1 [Compound N14, N-(2,6-Difluorophenyl)-4-[5-(1,1-difluoro-2-{[6-(trifluoromethyl)pyridin-2-yl]oxy}ethyl)-2-methylpyrimidin-4-yl]piperidine-1-carboxamide]
27 | 159 nM | O=C(COc1ccnc(C(F)(F)F)n1)c1cnc(NCCF)nc1C1CCN(C(=O)Nc2c(F)cccc2F)CC1 [Compound M7, N-(2,6-Difluorophenyl)-4-{2-[(2-fluoroethyl)amino]-5-({[2-(trifluoromethyl)pyrimidin-4-yl]oxy}acetyl)pyrimidin-4-yl}piperidine-1-carboxamide]
